# Ends that are not written are not given here. Peptide text beside a SMILES is read from it. * marks the point of attachment. Decanoyl = CCCCCCCCCC(=O)*
# Experiments:
# MOLT-4 T cell line = assay: Cyclic GMP assay, MOLT-4 cell line; type: cell-based, human; details: positive = cyclic GMP greater than 2 standard deviations above parallel negative control; peptide 1, 10, 100 μg/mL
# Source text: This assay measures the ability of a peptide of this invention to bind to the cell membrane receptor of the intact MOLT-4 cell and selectively stimulate production of cyclic GMP, as does human thymopoietin.
# The MOLT-4 cell line was obtained from the American Type Culture Collection of Rockville, Md. MOLT-4 cells were freshly seeded and grown for 3 days with harvesting as described in T. Audhya et al, Arch. Biochem Biophys., 234: 167-177 (1984). The cells were washed 3 times in PBS and resuspended in RPMI 1640 at a concentration of […]; cells/ml and were allowed to equilibrate at 37° C. for 30 minutes before the addition of the test pentapeptides or control peptides, in 25 μl to yield a final concentration of 1, 10, and 100 μg/mL. The incubation was allowed to proceed in a shaking water bath for 4-5 minutes and was then terminated by addition of 1 ml ice-cold TCA (10 percent in H2 O).
# The cells in TCA were homogenized and sonicated to release cyclic nucleotide. The suspension was centrifuged at 3000×g for 20 minutes at 4° C. The resulting precipitate was dissolved in 0.1N NaOH to determine the protein content. […]
# A threshold activity was determined for each peptide tested. […] Test results were considered positive if the level of cyclic GMP was greater than […] that determined for the parallel negative control.
# CEM T cell line = assay: Cyclic GMP assay, CEM cell line; type: cell-based, human; details: positive = cyclic GMP greater than 2 standard deviations above parallel negative control; peptide 1, 10, 100 μg/mL
# γ TP receptor = assay: Neuromuscular (electromyographic) assay; type: in vivo; details: i.v. or s.c. in mice, electromyography 18 hours after administration
# Description: The neuromuscular assay is performed to determine the effect, if any, of different peptides and dosages of peptides on the γ TP receptor according to the invention. This assay is carried out as follows. Various doses of a selected peptide of this invention, prepared as described in the preceding examples, are dissolved in normal saline and injected either intravenously (i.v.) or subcutaneously (s.c.) into mice (or other selected laboratory animals). The electromyographic assay is performed according to G. Goldstein et al, J. Jeurol. and Neurosurg. Physchiat., 31:453-459 (1968) 18 hours after administration of the peptide.
# Mice of either sex, weighing […], are anesthetized with 150 μl of 5% sodium pentobarbital (Abbott Laboratories, Chicago, Ill.). The nerve is stimulated with a Grass S-48 stimulator and a Grass SIV-5A stimulus isolation unit (Grass Instrument Co., Quincy, Mass.) and the electromyographic response is recorded with a Tektronix storage oscilloscope-5111 coupled to a 5A21N differential amplifier and a 5B10N time base (Tektronix, Beaverton, Oreg.).
# Groups of five or more mice are used for each experiment. […] The mean, standard deviation and statistical significance of differences between experimental animals and controls are assessed by one-way analysis of variance based on ratio. […]
# [1] = Enzymatic stability, duodenum in diffusion cell; details: for intact peptide: rat duodenum, phosphate buffer pH 5.5, 1 mg/mL
# Description: (§1) A rat duodenum was opened and attached to a 3.5 mL diffusion cell [Crownglass, N.J.] with buffer in both chambers. The selected test peptide in phosphate buffer (pH 5.5) was applied to both the cells to a final concentration of 1 mg/mL, and samples were taken at 0, 2 and 4 hours. The aliquots were subjected to high performance liquid chromatography (HPLC) with ultraviolet detection at 220 nm. The solvent system for thymopentin was phosphate buffer and methanol.
# in vitro = details: rat, real gastrointestinal fluid or homogenate, pH 5.5
# Description: as §1
compound,measurement,setting,value
CCCCCCCCCC(=O)N[C@@H](CCCNC(=N)N)C(=O)N1CCC[C@H]1C(=O)N[C@@H](CC(=O)O)C(=O)N1CCC[C@H]1C(=O)N[C@@H](Cc1ccccc1)C(N)=O [Decanoyl-Arg-Pro-Asp-Pro-Phe-NH2] (Decanoyl-RPDPF-NH2),inducing increased cGMP levels in the human MOLT-4 T cell line (β),MOLT-4 T cell line,positive
same,inducing increased cGMP levels in the human CEM T cell line (α),CEM T cell line,positive
same,thymopoietin/thymopentin-like results on the neuromuscular assay (γ),γ TP receptor,γ-positive
"RKDVY [TP-5, thymopentin]",intact peptide,[1]; 0 hours,100%
same,intact peptide,[1]; 4 hours,negligible
same,"remaining at 2 h, 1 mg/mL","[1]; rat, rat duodenum mounted in a diffusion cell, pH 5.5",20%
Ac-RPTPY-NH2 [Acetyl-Arg-Pro-Thr-Pro-Tyr-NH2],inducing increased cGMP levels in the human CEM T cell line (α),CEM T cell line,positive
Ac-RPTPF-NH2 [Acetyl-Arg-Pro-Thr-Pro-Phe-NH2],inducing increased cGMP levels in the human CEM T cell line (α),CEM T cell line,positive
Ac-RPDPF-NH2 [Acetyl-Arg-Pro-Asp-Pro-Phe-NH2],"remaining at 2 h, 1 mg/mL",in vitro,~100%
same,"remaining at 4 h, 1 mg/mL",in vitro,~90%

# From US5215964A, “Peptides useful in regulating the immune and nervous systems” (Immunobiology Research Institute, Inc., priority 1991, dated 1993)
